Laboratory results published in publication PMC2651632 (Biochemistry, 2008).

Biological target: T1, reconstituted ATase (ATN6-ATC3 complex) (Escherichia coli, UniProt P30870)
T1 sequence (P30870 1-608): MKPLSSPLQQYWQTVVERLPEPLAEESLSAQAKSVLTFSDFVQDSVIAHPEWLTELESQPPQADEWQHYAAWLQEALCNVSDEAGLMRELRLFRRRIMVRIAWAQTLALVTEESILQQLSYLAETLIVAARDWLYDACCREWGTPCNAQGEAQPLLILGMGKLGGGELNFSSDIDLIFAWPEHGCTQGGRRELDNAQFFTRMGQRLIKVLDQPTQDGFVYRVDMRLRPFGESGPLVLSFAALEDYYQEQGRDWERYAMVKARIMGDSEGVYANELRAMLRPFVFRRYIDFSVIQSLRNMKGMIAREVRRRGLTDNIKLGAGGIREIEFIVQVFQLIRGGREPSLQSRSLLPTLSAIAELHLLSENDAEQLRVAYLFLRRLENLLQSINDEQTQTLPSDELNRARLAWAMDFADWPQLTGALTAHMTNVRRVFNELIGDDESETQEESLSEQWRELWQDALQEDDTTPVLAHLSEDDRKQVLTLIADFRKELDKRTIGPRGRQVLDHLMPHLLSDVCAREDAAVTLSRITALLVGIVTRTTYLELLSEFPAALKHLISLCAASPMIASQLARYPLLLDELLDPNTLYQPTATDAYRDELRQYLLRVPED
T1 sequence (P30870 609-946 partner): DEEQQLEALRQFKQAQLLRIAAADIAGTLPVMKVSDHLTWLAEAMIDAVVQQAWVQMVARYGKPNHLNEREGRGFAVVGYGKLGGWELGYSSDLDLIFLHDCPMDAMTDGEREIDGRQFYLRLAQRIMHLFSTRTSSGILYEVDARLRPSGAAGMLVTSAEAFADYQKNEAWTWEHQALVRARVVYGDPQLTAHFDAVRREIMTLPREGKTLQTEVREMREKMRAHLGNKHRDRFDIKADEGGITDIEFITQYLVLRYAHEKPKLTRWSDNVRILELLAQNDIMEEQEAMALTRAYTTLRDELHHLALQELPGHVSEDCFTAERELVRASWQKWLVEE
Test: initial rate of GS adenylylation, […] incorporation from [alpha-32P]ATP
Assay type: biochemical

EC50: ~7 mM
SMILES: NC(=O)CC[C@H](N)C(=O)O [glutamine]
